Series [1] relates to Mus musculus. The series is described as follows: Analgetic activity in sc dosed mouse by hot-plate method. It counts as functional. (In general: In hot-plate and tail-flick tests a longer latency is read as antinociception.)
The test system of series [2] is Mus musculus. Nature of the series: Analgetic activity in mouse at 100 mg/kg, sc by hot-plate method. It counts as functional, organism-based. Further details: dose 100 mg/kg.
For series [3], the system named is Mus musculus. The series is described as follows: Toxicity in mouse at 100 mg/kg, sc. It counts as organism-based. Further details: dose 100 mg/kg, route subcutaneous. The conditions noted are these: in vivo.
The subject of series [4] is Mus musculus. Nature of the series: Analgetic activity in mouse at 50 mg/kg, sc by hot-plate method. It counts as functional, organism-based. Further details: dose 50 mg/kg.

Calls of active or inactive are those of the source. The calls are words filed in the database; no cut-off is given here.

Regarding `CN1CC[C@H]2C[C@H]1Cc1ccc(O)cc12`, it took a dose of 4.5 mg/kg to reach the 50% effect level in series [1] (ED50).

On to `CN1CC[C@]23c4c5ccc(O)c4O[C@H]2[C@@H](O)C=C[C@H]3[C@H]1C5` [MORPHINE], for which the ED50 – broadly, the dose that gives a 50% effect, or the effect in half of the subjects – in series [1] turned out to be 1.2 mg/kg.

Turning to `CN1CC[C@@]2(C)C[C@H]1Cc1ccccc12`, the 50% effect level in series [1] (ED50) was put at a dose of 11 mg/kg.

For the molecule `CN1CC[C@@H]2CC=C[C@@H]1C2`, the outcome in series [2] was inactive.

Molecule `CN1CCC2CC(=O)CC1C2` (stereo not drawn) registered an ED50 in series [1] of 40 mg/kg.

As for `CN1CCC2CC1C[C@@H](O)C2` (stereo partly drawn), the result in series [2] was inactive.

For the molecule `CN1CC[C@@H]2C=CC[C@@H]1C2`, the Activity result in series [3] is on record as “Toxic”. Besides, the result in series [4] was inactive.

These data come from ChEMBL document CHEMBL3271945, “Azabicyclo chemistry. 6. An investigation of one of the chemical parameters for analgetic activity. Synthesis of 2-methyl-2-azabicyclo[3.3.1]non-6-ene and -non-7-ene” (J Med Chem, 1977).
